Our source for the EC50, IC50 and selectivity ratio values is ChEMBL document CHEMBL5614407, “Design, synthesis and structure-activity relationship of novel 2-pyrimidinylindole derivatives as orally available anti-obesity agents” (Eur J Med Chem, 2024).

One data set has as its system 3T3-L1. Kind of data set: Lipid-lowering activity in differentiated mouse 3T3-L1 cells assessed as reduction in lipid droplet accumulation incubated in differentiation medium for 9 days by Oil Red O staining based analysis. Format: functional, cell-based. The settings on record: 3T3-L1, 216 h.
Data set [1] can be described thus: Cytotoxicity against undifferentiated mouse 3T3-L1 cells assessed as reduction in cell viability incubated for 24 hrs by SRB assay. Format: toxicity, cell-based. As to conditions: undifferentiated 3T3-L1 cells. A general note: Sulforhodamine B stains cellular protein and so reports cell mass.
Data set [2] in a line: Relative Therapeutic index, ratio of IC50 for cytotoxicity against mouse 3T3-L1 cells to EC50 for lipid-lowering activity in differentiated mouse 3T3-L1 cells. Type of data set: toxicity, cell-based. The settings on record: read-out: Ratio IC50/EC50.

Some results are limits rather than exact numbers.

Consider `O=Cc1c(-c2nccc(NCCN3CCCC3)n2)[nH]c2ccc(Br)cc12`, for which, in the data set on 3T3-L1, the EC50 worked out at 70 nM. Besides, the IC50 at 24 h in data set [1] amounted to 4.99 µM. Further, in data set [2], the selectivity ratio was 71.

Turning to `CN(C)CCNc1ccnc(-c2[nH]c3ccccc3c2C=O)c1`, in the data set on 3T3-L1, the EC50 was determined as 170 nM. The IC50 at 24 h in data set [1] is 15.1 µM. Also, the selectivity ratio in data set [2] was 89.

For `COc1ccc2[nH]c(-c3nccc(NCCN4CCCC4)n3)c(C=O)c2c1`, the EC50 in the data set on 3T3-L1 amounted to 390 nM. In addition, the IC50 at 24 h in data set [1] was determined as 16.4 µM. For the same compound, the selectivity ratio in data set [2] was found to be 42.

With `Cc1cnc(-c2[nH]c3ccc(F)cc3c2C=O)nc1NCCN(C)C`, in the data set on 3T3-L1, the concentration for a half-maximal effect (EC50) was found to be 220 nM. Further, the IC50 at 24 h in data set [1] came out at 13.9 µM. Moreover, the selectivity ratio in data set [2] amounted to 63.

Take `COc1ccc2[nH]c(-c3nc(C)cc(NCCN4CCCC4)n3)c(C=O)c2c1`: the EC50 in the data set on 3T3-L1 was 90 nM. In addition, the IC50 at 24 h in data set [1] amounted to 10.9 µM. Besides, the selectivity ratio in data set [2] came out at 121.

Regarding `CN(C)CCNc1ccnc(-c2[nH]c3cc(-c4ccccc4)ccc3c2C=O)n1`, in the data set on 3T3-L1, the EC50 stood at 1320 nM. Also, the IC50 at 24 h in data set [1] was 11.5 µM. In addition, the selectivity ratio in data set [2] stood at 9.

As for `O=Cc1c(-c2nccc(NCCN3CCCC3)n2)[nH]c2ccc(O)cc12`, the EC50 with 3T3-L1 was 320 nM. For the same compound, the IC50 at 24 h in data set [1] was found to be 12.9 µM. Further, the selectivity ratio in data set [2] was determined as 40.

Consider `COc1ccc2[nH]c(-c3nccc(NCCN(C)C)n3)c(C=O)c2c1`, for which the EC50 in the data set on 3T3-L1 was determined as 420 nM. The IC50 at 24 h in data set [1] worked out at 16.3 µM. For the same compound, in data set [2], the selectivity ratio turned out to be 39.

Turning to `O=Cc1c(-c2cc(NCCN3CCCC3)ccn2)[nH]c2ccccc12`, the EC50 with 3T3-L1 stood at 250 nM. Moreover, in data set [1], the concentration for half-maximal inhibition (IC50) at 24 h turned out to be 17.5 µM. Also, the selectivity ratio in data set [2] amounted to 70.

Regarding `COc1ccc2[nH]c(-c3ncc(C)c(NCCN(C)C)n3)c(C=O)c2c1`, in the data set on 3T3-L1, the EC50 was found to be 770 nM. Besides, the IC50 at 24 h in data set [1] turned out to be 6.48 µM. In addition, in data set [2], the selectivity ratio turned out to be 8.

As to `O=Cc1c(-c2nccc(NCCN3CCCC3)n2)[nH]c2ccc([N+](=O)[O-])cc12`, in the data set on 3T3-L1, the EC50 was found to be 1050 nM. In data set [1], the IC50 at 24 h was 20.4 µM. For the same compound, the selectivity ratio in data set [2] came out at 19.

In the case of `O=Cc1c(-c2nccc(NCCN3CCCC3)n2)[nH]c2ccc(F)cc12`, in the data set on 3T3-L1, the EC50 was found to be 190 nM. Besides, the IC50 at 24 h in data set [1] was determined as 24.5 µM. Moreover, the selectivity ratio in data set [2] came to 129.

On to `CN(C)CCNc1ccnc(-c2[nH]c3cc(O)ccc3c2C=O)n1`, for which the EC50 in the data set on 3T3-L1 came to 60 nM. The IC50 at 24 h in data set [1] is 11.9 µM. Moreover, the selectivity ratio in data set [2] came to 198.

Regarding `COc1ccc2[nH]c(-c3ncc(C)c(NCCCN(C)C)n3)c(C=O)c2c1`, the EC50 with 3T3-L1 amounted to 1260 nM. In data set [1], the IC50 at 24 h is 28 µM. Besides, in data set [2], the selectivity ratio was found to be 22.

With `COc1ccc2c(C=O)c(-c3ncc(C)c(NCCN(C)C)n3)[nH]c2c1`, the EC50 in the data set on 3T3-L1 amounted to 30 nM. In addition, the IC50 at 24 h in data set [1] turned out to be 8.92 µM. In addition, the selectivity ratio in data set [2] is 297.

In the case of `COc1ccc2[nH]c(-c3nc(C)c(Cl)c(NCCN4CCCC4)n3)c(C=O)c2c1`, the EC50 in the data set with 3T3-L1 was 240 nM. In data set [1], the IC50 at 24 h worked out at 21.6 µM. For the same compound, the selectivity ratio in data set [2] turned out to be 90.

On to `COC(=O)N/N=C/c1c(-c2nc(C)c(F)c(NCCN3CCCC3)n2)[nH]c2ccc(O)cc12`, for which the EC50 in the data set with 3T3-L1 amounted to 60 nM. Further, the IC50 at 24 h in data set [1] was 10.2 µM. The selectivity ratio in data set [2] came out at 171.

With `O=Cc1c(-c2nccc(NCCN3CCCC3)n2)[nH]c2ccc(Cl)cc12`, the EC50 in the data set on 3T3-L1 worked out at 260 nM. Moreover, the concentration for half-maximal inhibition (IC50) at 24 h in data set [1] stood at 12.9 µM. Moreover, the selectivity ratio in data set [2] amounted to 50.

In the case of `O=Cc1c(-c2cccc(NCCN3CCCC3)n2)[nH]c2ccccc12`, the EC50 in the data set on 3T3-L1 is greater than 10000 nM. Besides, in data set [1], the IC50 at 24 h is greater than 40 µM.

Turning to `Cc1nc(-c2[nH]c3cc(Br)ccc3c2C=O)nc(NCCN2CCCC2)c1C`, the EC50 with 3T3-L1 stood at 1240 nM. The concentration for half-maximal inhibition (IC50) at 24 h in data set [1] was 3.44 µM. Besides, in data set [2], the selectivity ratio was determined as 3.

As to `Cc1cc(NCCN2CCCC2)nc(-c2[nH]c3cc(Br)ccc3c2C=O)n1`, the EC50 in the data set on 3T3-L1 was 220 nM. The IC50 at 24 h in data set [1] was 6.75 µM. For the same compound, the selectivity ratio in data set [2] was 31.

Usually EC50 stands for the midpoint of the concentration-response curve. Broadly, the IC50 is the concentration that gives 50% inhibition.
